Consider 21 compounds from article PMC10976173, “Synthesis of 5-Benzylamino and 5-Alkylamino-Substituted Pyrimido[4,5-c]quinoline Derivatives as CSNK2A Inhibitors with Antiviral Activity” (Pharmaceuticals, 2024).

SMILES strings stand for the structures. ≈ marks a conversion by molar mass, not a printed value.

For data set [1], the target named is T1, CSNK2A (CSNK2A2-NLuc) (Homo sapiens, UniProt P19784).
T1 construct: expressed in transfected cells; host or cells: HEK293
Description: In-cell CSNK2A target engagement by NanoBRET assay. The conditions noted are these: for IC50: In-cell target engagement by NanoBRET assay, HEK293 cells; for Designation: active / inactive analogs with 10-fold differences in IC50. In kind it is cell-based.
Description: A transfection complex of DNA at 10 µg/mL was created, consisting of 9 µg/mL of carrier DNA (Promega, Madison, WI, USA) and 1 µg/mL of CSNK2A2-NLuc fusion DNA in Opti-MEM without serum (Gibco). FuGENE HD (Promega) was added at 30 µL/mL to form a lipid/DNA complex. The solution was then mixed and incubated at room temperature for 20 min. […] The following day, the media was removed via aspiration and replaced with 85 μL of Opti-MEM without phenol red. A total of 5 μL per well of 20×-NanoBRET Tracer K10 (Promega) at 5 μM in Tracer Dilution Buffer (Promega N291B) was added to all wells, except the “no tracer” control wells. Test compounds (10 mM in DMSO) were diluted 100× in Opti-MEM media to prepare stock solutions and evaluated at eleven concentrations. A total of 10 μL per well of the 10-fold test compound stock solutions (final assay concentration of 0.1% DMSO) was added. […] 96-well plates containing cells with NanoBRET Tracer K10 and test compounds (100 µL total volume per well) were equilibrated (37 °C/5% CO2) for 2 h. The plates were cooled to room temperature for 15 min. […] A total of 50 μL of the 3× substrate/extracellular NL inhibitor were added to each well. The plates were read within 30 min on a GloMax Discover luminometer (Promega) equipped with 450 nm BP filter (donor) and 600 nm LP filter (acceptor) using 0.3 s integration time. Raw milliBRET (mBRET) values were obtained by dividing the acceptor emission values (600 nm) by the donor emission values (450 nm) and multiplying by 1000. […] The data were first normalized and then fit using Sigmoidal, 4PL binding curve in GraphPad Prism version 9.5.1 to determine IC50 values (Figure S1).

A short description of data set [2]: Kinetic solubility in PBS pH 7.4. Conditions: phosphate-buffered saline, pH 7.4, aqueous buffer, kinetic from dmso stock, PBS pH 7.4, 24 h. In kind it is physicochemical. The method, then:
Kinetic solubility assay was conducted using 10 mM DMSO stocks of compounds in phosphate-buffered saline solution (PBS) at pH 7.4 by Analiza, Inc., Cleveland, OH, USA. […] The calculated values were corrected for the background nitrogen in the media and DMSO.

T1 sequence (P19784 whole entry): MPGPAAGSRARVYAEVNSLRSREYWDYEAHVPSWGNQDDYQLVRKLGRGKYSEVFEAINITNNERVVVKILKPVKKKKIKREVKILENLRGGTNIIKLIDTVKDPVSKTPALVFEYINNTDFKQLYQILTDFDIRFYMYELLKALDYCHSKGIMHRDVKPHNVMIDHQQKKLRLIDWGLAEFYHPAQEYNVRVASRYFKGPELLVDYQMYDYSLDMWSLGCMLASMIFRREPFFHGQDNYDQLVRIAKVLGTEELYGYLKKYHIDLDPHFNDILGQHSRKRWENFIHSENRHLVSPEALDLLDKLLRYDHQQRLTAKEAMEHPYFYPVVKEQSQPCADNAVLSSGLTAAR

Take `O=C(O)c1ccc2c(c1)nc(NCc1ccccc1Cl)c1ncncc12` [Compound 4a, 5-((2-chlorobenzyl)amino)pyrimido[4,5-c]quinoline-8-carboxylic acid]: the melting point fell in the range of 193 to 198 °C. The compound also yielded a concentration for half-maximal inhibition (IC50) in data set [1] of 0.29 µM. The same compound displayed a solubility at 24 h in data set [2] of 140 µM (≈ 51.1 µg/mL).

In turn, `CN1CCC(CNc2nc3cc(C(=O)O)ccc3c3cncnc23)CC1` [Compound 4ab, 5-(((1-methylpiperidin-4-yl)methyl)amino)pyrimido[4,5-c]quinoline-8-carboxylic acid] yielded a melting point of 205 to 208 °C. The same compound showed an IC50 in data set [1] of 48.7 µM. For the same compound, the solubility at 24 h in data set [2] turned out to be 220 µM (≈ 77.3 µg/mL).

For the compound `CN(Cc1ccccc1)c1nc2cc(C(=O)O)ccc2c2cncnc12` [Compound 4ac, 5-(benzyl(methyl)amino)pyrimido[4,5-c]quinoline-8-carboxylic acid], the melting point was in the range of 200 to 204 °C. Besides, in data set [1], 0.25 µM corresponded to half-maximal inhibition (IC50) and the Designation result is on record as “Active”. This compound also registered a solubility at 24 h in data set [2] of 180 µM (≈ 62 µg/mL).

In turn, `CN(CC1CCCCC1)c1nc2cc(C(=O)O)ccc2c2cncnc12` [Compound 4ad, 5-((cyclohexylmethyl)(methyl)amino)pyrimido[4,5-c]quinoline-8-carboxylic acid] registered a melting point of 229 to 231 °C. For the same compound, in data set [1], half-maximal inhibition (IC50) required 2.4 µM and the Designation result is reported as “Inactive”. Moreover, the “fold less active on CSNK2A” value in data set [1] (compared to unmethylated parent amine 4t) is reported as 17 fold. The solubility at 24 h in data set [2] amounted to 200 µM (≈ 70.1 µg/mL).

`CC(Nc1nc2cc(C(=O)O)ccc2c2cncnc12)c1ccccc1` (stereo not drawn) [Compound 4ae, 5-((1-phenylethyl)amino)pyrimido[4,5-c]quinoline-8-carboxylic acid] gave a melting point of 228 to 232 °C. Moreover, in data set [1], the IC50 is 1.9 µM and the Designation entry is listed as “Inactive”. This compound showed a solubility at 24 h in data set [2] of 180 µM (≈ 62 µg/mL).

In turn, `O=C(O)c1ccc2c(c1)nc(N[C@H]1CCc3ccccc31)c1ncncc12` [Compound 4ag, (S)-5-((2,3-dihydro-1H-inden-1-yl)amino)pyrimido[4,5-c]quinoline-8-carboxylic acid] came in with a melting point of 252 to 255 °C. Also, the IC50 in data set [1] was 0.3 µM.

`O=C(O)c1ccc2c(c1)nc(N[C@@H]1CCc3ccccc31)c1ncncc12` [Compound 4ah, (R)-5-((2,3-dihydro-1H-inden-1-yl)amino)pyrimido[4,5-c]quinoline-8-carboxylic acid] gave a melting point of 260 to 262 °C. The IC50 in data set [1] is over 10 µM.

On to `O=C(O)c1ccc2c(c1)nc(N1CCc3ccccc3C1)c1ncncc12` [Compound 4ai, 5-(3,4-dihydroisoquinolin-2(1H)-yl)pyrimido[4,5-c]quinoline-8-carboxylic acid], for which the melting point was 204 to 208 °C. Further, in data set [1], half-maximal inhibition (IC50) was put at 1.2 µM and the Designation result is reported as “Inactive”. This compound also displayed a solubility at 24 h in data set [2] of 160 µM (≈ 57 µg/mL).

Turning to `O=C(O)c1ccc2c(c1)nc(NCc1cccc(Cl)c1)c1ncncc12` [Compound 4b, 5-((3-chlorobenzyl)amino)pyrimido[4,5-c]quinoline-8-carboxylic acid], the melting point lay within 240 to 243 °C. The compound further returned an IC50 in data set [1] of 0.37 µM. The compound further registered a solubility at 24 h in data set [2] of 150 µM (≈ 54.7 µg/mL).

`COc1ccccc1CNc1nc2cc(C(=O)O)ccc2c2cncnc12` [Compound 4d, 5-((2-methoxybenzyl)amino)pyrimido[4,5-c]quinoline-8-carboxylic acid] displayed a melting point of 230 to 233 °C. This compound also returned an IC50 in data set [1] of 1 µM. Besides, the solubility at 24 h in data set [2] came out at 140 µM (≈ 50.5 µg/mL).

On to `COc1cccc(CNc2nc3cc(C(=O)O)ccc3c3cncnc23)c1` [Compound 4e, 5-((3-methoxybenzyl)amino)pyrimido[4,5-c]quinoline-8-carboxylic acid], for which the melting point is 210 to 214 °C. The same compound yielded an IC50 in data set [1] of 0.6 µM. In data set [2], this compound gave a solubility at 24 h of 170 µM (≈ 61.3 µg/mL).

On to `COc1ccc(CNc2nc3cc(C(=O)O)ccc3c3cncnc23)cc1` [Compound 4f, 5-((4-methoxybenzyl)amino)pyrimido[4,5-c]quinoline-8-carboxylic acid], for which the melting point is 246 to 247 °C. This compound also returned an IC50 in data set [1] of 0.28 µM. Also, the concentration in solution in data set [2] (solubility at 24 h) came to 160 µM (≈ 57.7 µg/mL).

`Cc1ccc(CNc2nc3cc(C(=O)O)ccc3c3cncnc23)cc1` [Compound 4h, 5-((4-methylbenzyl)amino)pyrimido[4,5-c]quinoline-8-carboxylic acid] showed a melting point of 201 to 204 °C. The IC50 in data set [1] was 0.34 µM. In data set [2], this compound displayed a solubility at 24 h of 170 µM (≈ 58.5 µg/mL).

With `O=C(O)c1ccc2c(c1)nc(NCc1ccc(C(F)F)cc1)c1ncncc12` [Compound 4i, 5-((4-(difluoromethyl)benzyl)amino)pyrimido[4,5-c]quinoline-8-carboxylic acid], the melting point was 250 to 255 °C. Besides, in data set [1], 0.47 µM corresponded to half-maximal inhibition (IC50). This compound also displayed a solubility at 24 h in data set [2] of 150 µM (≈ 57.1 µg/mL).

Compound `O=C(O)c1ccc2c(c1)nc(NCc1ccc(C(F)(F)F)cc1)c1ncncc12` [Compound 4j, 5-((4-(trifluoromethyl)benzyl)amino)pyrimido[4,5-c]quinoline-8-carboxylic acid] yielded a melting point of 245 to 248 °C. In data set [1], this compound returned an IC50 of 0.64 µM. The concentration in solution in data set [2] (solubility at 24 h) was 160 µM (≈ 63.7 µg/mL).

On to `N#Cc1ccc(CNc2nc3cc(C(=O)O)ccc3c3cncnc23)cc1` [Compound 4k, 5-((4-cyanobenzyl)amino)pyrimido[4,5-c]quinoline-8-carboxylic acid], for which the melting point was in the range of 270 to 275 °C. The IC50 in data set [1] came out at 0.53 µM. The compound also gave a solubility at 24 h in data set [2] of 160 µM (≈ 56.9 µg/mL).

With `O=C(O)c1ccc2c(c1)nc(NCc1ccc(-c3ccc(Cl)cc3)cc1)c1ncncc12` [Compound 4l, 5-(((4′-chloro-[1,1′-biphenyl]-4-yl)methyl)amino)pyrimido[4,5-c]quinoline-8-carboxylic acid], the melting point was 246 to 248 °C. The same compound had an IC50 in data set [1] of 1.9 µM. The compound further yielded a solubility at 24 h in data set [2] of under 1 µM.

As for `O=C(O)c1ccc2c(c1)nc(NCc1ccc3ccccc3c1)c1ncncc12` [Compound 4m, 5-((naphthalen-2-ylmethyl)amino)pyrimido[4,5-c]quinoline-8-carboxylic acid], the melting point was in the range of 250 to 253 °C. Further, the IC50 in data set [1] is 0.5 µM. Moreover, the concentration in solution in data set [2] (solubility at 24 h) came to 5 µM (≈ 1.9 µg/mL).

Take `O=C(O)c1ccc2c(c1)nc(NCc1ccccn1)c1ncncc12` [Compound 4n, 5-((pyridin-2-ylmethyl)amino)pyrimido[4,5-c]quinoline-8-carboxylic acid]: the melting point fell in the range of 250 to 254 °C. In data set [1], this compound registered an IC50 of 8 µM. This compound yielded a solubility at 24 h in data set [2] of 140 µM (≈ 46.4 µg/mL).

Compound `O=C(O)c1ccc2c(c1)nc(NCc1cccnc1)c1ncncc12` [Compound 4o, 5-((pyridin-3-ylmethyl)amino)pyrimido[4,5-c]quinoline-8-carboxylic acid] returned a melting point of 270 to 274 °C. This compound returned an IC50 in data set [1] of 6 µM. Moreover, the solubility at 24 h in data set [2] is 200 µM (≈ 66.3 µg/mL).

As to `O=C(O)c1ccc2c(c1)nc(NCc1ccncc1)c1ncncc12` [Compound 4p, 5-((pyridin-4-ylmethyl)amino)pyrimido[4,5-c]quinoline-8-carboxylic acid], the melting point is 274 to 276 °C. In data set [1], this compound returned a 50% inhibitory concentration (IC50) of 14 µM. In data set [2], this compound showed a solubility at 24 h of 200 µM (≈ 66.3 µg/mL).
